± gives the expanded uncertainty stated by the source.
Assay: mn = molality of the nth substance listed, in mol/kg
Conditions: 100 kPa, Liquid; for speed of sound: Frequency=3 MHz, Sing-around technique in a fixed-path interferometer; for mass density: Vibrating tube method

CCCC[N+]1(C)CCOCC1.O=S(=O)([N-]S(=O)(=O)C(F)(F)F)C(F)(F)F + C[S+](C)[O-]
Conditions	mass density, 298.15 K [kg/m3]	mass density, 303.15 K [kg/m3]	mass density, 308.15 K [kg/m3]	mass density, 313.15 K [kg/m3]	mass density, 318.15 K [kg/m3]	speed of sound, 298.15 K [m/s]	speed of sound, 303.15 K [m/s]	speed of sound, 308.15 K [m/s]	speed of sound, 313.15 K [m/s]	speed of sound, 318.15 K [m/s]
m1 = 0.01276	1096.62 ± 0.24	1091.6 ± 0.24	1086.58 ± 0.24	1081.57 ± 0.24	1076.55 ± 0.24	1483.5 ± 1.2	1466.6 ± 1.2	1449.8 ± 1.2	1433.1 ± 1.2	1416.5 ± 1.2
m1 = 0.01778	1097.14 ± 0.24	1092.12 ± 0.24	1087.11 ± 0.24	1082.09 ± 0.24	1077.08 ± 0.24	1483 ± 1.2	1466.2 ± 1.2	1449.3 ± 1.2	1432.6 ± 1.2	1416.1 ± 1.2
m1 = 0.02681	1098.08 ± 0.24	1093.06 ± 0.24	1088.05 ± 0.24	1083.03 ± 0.24	1078.02 ± 0.24	1482.2 ± 1.2	1465.4 ± 1.2	1448.6 ± 1.2	1431.9 ± 1.2	1415.4 ± 1.2
m1 = 0.04025	1099.46 ± 0.24	1094.44 ± 0.24	1089.43 ± 0.24	1084.42 ± 0.24	1079.41 ± 0.24	1481 ± 1.2	1464.2 ± 1.2	1447.5 ± 1.2	1430.8 ± 1.2	1414.3 ± 1.2
m1 = 0.05498	1100.96 ± 0.24	1095.95 ± 0.24	1090.94 ± 0.24	1085.93 ± 0.24	1080.93 ± 0.24	1479.7 ± 1.2	1462.9 ± 1.2	1446.2 ± 1.2	1429.6 ± 1.2	1413.1 ± 1.2
m1 = 0.06956	1102.43 ± 0.23	1097.42 ± 0.23	1092.42 ± 0.23	1087.41 ± 0.23	1082.41 ± 0.23	1478.5 ± 1.2	1461.7 ± 1.2	1445 ± 1.2	1428.4 ± 1.2	1412 ± 1.2
m1 = 0.08753	1104.23 ± 0.23	1099.22 ± 0.23	1094.22 ± 0.23	1089.22 ± 0.23	1084.22 ± 0.23	1476.9 ± 1.2	1460.1 ± 1.2	1443.5 ± 1.2	1426.9 ± 1.2	1410.6 ± 1.2
m1 = 0.1103	1106.47 ± 0.23	1101.47 ± 0.23	1096.47 ± 0.23	1091.48 ± 0.23	1086.48 ± 0.23	1475 ± 1.2	1458.2 ± 1.2	1441.6 ± 1.2	1425.1 ± 1.2	1408.8 ± 1.2
m1 = 0.1334	1108.73 ± 0.23	1103.73 ± 0.23	1098.73 ± 0.23	1093.74 ± 0.23	1088.75 ± 0.23	1472.9 ± 1.2	1456.3 ± 1.2	1439.7 ± 1.2	1423.3 ± 1.2	1407 ± 1.2
m1 = 0.1687	1112.1 ± 0.23	1107.11 ± 0.23	1102.12 ± 0.23	1097.13 ± 0.23	1092.14 ± 0.23	1470 ± 1.2	1453.4 ± 1.2	1436.9 ± 1.2	1420.5 ± 1.2	1404.4 ± 1.2

CCCCCCCC[N+]1(C)CCOCC1.O=S(=O)([N-]S(=O)(=O)C(F)(F)F)C(F)(F)F + C[S+](C)[O-]
Conditions	mass density, 298.15 K [kg/m3]	mass density, 303.15 K [kg/m3]	mass density, 308.15 K [kg/m3]	mass density, 313.15 K [kg/m3]	mass density, 318.15 K [kg/m3]	speed of sound, 298.15 K [m/s]	speed of sound, 303.15 K [m/s]	speed of sound, 308.15 K [m/s]	speed of sound, 313.15 K [m/s]	speed of sound, 318.15 K [m/s]
m1 = 0.0104	1096.19 ± 0.21	1091.17 ± 0.21	1086.16 ± 0.21	1081.14 ± 0.21	1076.13 ± 0.21	1483.5 ± 1.2	1466.6 ± 1.2	1449.8 ± 1.2	1433 ± 1.2	1416.5 ± 1.2
m1 = 0.01752	1096.81 ± 0.21	1091.79 ± 0.21	1086.78 ± 0.21	1081.77 ± 0.21	1076.76 ± 0.21	1482.7 ± 1.2	1465.8 ± 1.2	1449 ± 1.2	1432.3 ± 1.2	1415.8 ± 1.2
m1 = 0.0266	1097.59 ± 0.21	1092.58 ± 0.21	1087.57 ± 0.21	1082.56 ± 0.21	1077.56 ± 0.21	1481.7 ± 1.2	1464.8 ± 1.2	1448.1 ± 1.2	1431.4 ± 1.2	1414.9 ± 1.2
m1 = 0.03779	1098.55 ± 0.21	1093.54 ± 0.21	1088.53 ± 0.21	1083.53 ± 0.21	1078.53 ± 0.21	1480.5 ± 1.2	1463.7 ± 1.2	1446.9 ± 1.2	1430.2 ± 1.2	1413.8 ± 1.2
m1 = 0.04989	1099.57 ± 0.21	1094.57 ± 0.21	1089.57 ± 0.21	1084.57 ± 0.21	1079.57 ± 0.21	1479.2 ± 1.2	1462.4 ± 1.2	1445.7 ± 1.2	1429 ± 1.2	1412.6 ± 1.2
m1 = 0.06889	1101.17 ± 0.21	1096.17 ± 0.21	1091.17 ± 0.21	1086.18 ± 0.21	1081.19 ± 0.21	1477.2 ± 1.2	1460.4 ± 1.2	1443.7 ± 1.2	1427.1 ± 1.2	1410.8 ± 1.2
m1 = 0.08629	1102.6 ± 0.2	1097.62 ± 0.2	1092.62 ± 0.2	1087.64 ± 0.2	1082.65 ± 0.2	1475.3 ± 1.2	1458.6 ± 1.2	1441.9 ± 1.2	1425.4 ± 1.2	1409.1 ± 1.2
m1 = 0.1068	1104.29 ± 0.2	1099.3 ± 0.2	1094.32 ± 0.2	1089.34 ± 0.2	1084.36 ± 0.2	1473.2 ± 1.2	1456.5 ± 1.2	1439.9 ± 1.2	1423.4 ± 1.2	1407.1 ± 1.2
m1 = 0.1403	1106.96 ± 0.2	1101.99 ± 0.2	1097.02 ± 0.2	1092.04 ± 0.2	1087.08 ± 0.2	1469.8 ± 1.2	1453.1 ± 1.2	1436.6 ± 1.2	1420.2 ± 1.2	1404 ± 1.2
m1 = 0.1703	1109.31 ± 0.2	1104.34 ± 0.2	1099.38 ± 0.2	1094.41 ± 0.2	1089.45 ± 0.2	1466.8 ± 1.2	1450.2 ± 1.2	1433.8 ± 1.2	1417.4 ± 1.2	1401.2 ± 1.2

CC[N+]1(C)CCOCC1.O=S(=O)([N-]S(=O)(=O)C(F)(F)F)C(F)(F)F + C[S+](C)[O-]
Conditions	mass density, 298.15 K [kg/m3]	mass density, 303.15 K [kg/m3]	mass density, 308.15 K [kg/m3]	mass density, 313.15 K [kg/m3]	mass density, 318.15 K [kg/m3]	speed of sound, 298.15 K [m/s]	speed of sound, 303.15 K [m/s]	speed of sound, 308.15 K [m/s]	speed of sound, 313.15 K [m/s]	speed of sound, 318.15 K [m/s]
m1 = 0.01623	1097.17 ± 0.26	1092.15 ± 0.26	1087.13 ± 0.26	1082.12 ± 0.26	1077.11 ± 0.26	1483.4 ± 1.2	1466.5 ± 1.2	1449.7 ± 1.2	1433 ± 1.2	1416.4 ± 1.2
m1 = 0.02434	1098.11 ± 0.26	1093.09 ± 0.26	1088.07 ± 0.26	1083.06 ± 0.26	1078.05 ± 0.26	1482.8 ± 1.2	1465.9 ± 1.2	1449.1 ± 1.2	1432.4 ± 1.2	1415.9 ± 1.2
m1 = 0.03937	1099.83 ± 0.26	1094.82 ± 0.26	1089.8 ± 0.26	1084.79 ± 0.26	1079.78 ± 0.26	1481.6 ± 1.2	1464.8 ± 1.2	1448 ± 1.2	1431.3 ± 1.2	1414.9 ± 1.2
m1 = 0.04917	1100.95 ± 0.26	1095.93 ± 0.26	1090.92 ± 0.26	1085.91 ± 0.26	1080.9 ± 0.26	1480.9 ± 1.2	1464 ± 1.2	1447.3 ± 1.2	1430.7 ± 1.2	1414.2 ± 1.2
m1 = 0.063	1102.51 ± 0.26	1097.5 ± 0.26	1092.49 ± 0.26	1087.48 ± 0.26	1082.47 ± 0.26	1479.8 ± 1.2	1463 ± 1.2	1446.3 ± 1.2	1429.7 ± 1.2	1413.3 ± 1.2
m1 = 0.07874	1104.28 ± 0.26	1099.27 ± 0.26	1094.26 ± 0.25	1089.26 ± 0.25	1084.25 ± 0.25	1478.6 ± 1.2	1461.8 ± 1.2	1445.2 ± 1.2	1428.6 ± 1.2	1412.2 ± 1.2
m1 = 0.09932	1106.57 ± 0.25	1101.56 ± 0.25	1096.55 ± 0.25	1091.55 ± 0.25	1086.55 ± 0.25	1477 ± 1.2	1460.3 ± 1.2	1443.7 ± 1.2	1427.2 ± 1.2	1410.8 ± 1.2
m1 = 0.1197	1108.8 ± 0.25	1103.8 ± 0.25	1098.79 ± 0.25	1093.79 ± 0.25	1088.79 ± 0.25	1475.5 ± 1.2	1458.8 ± 1.2	1442.3 ± 1.2	1425.8 ± 1.2	1409.5 ± 1.2
m1 = 0.1515	1112.25 ± 0.25	1107.24 ± 0.25	1102.24 ± 0.25	1097.25 ± 0.25	1092.25 ± 0.25	1473.2 ± 1.2	1456.5 ± 1.2	1440 ± 1.2	1423.6 ± 1.2	1407.4 ± 1.2

From the NIST ThermoML archive (doi:10.1016/j.jct.2015.04.006)
